Type in all cases: biochemical
The target in assay [1] is T1, Calpain I from human erythrocytes (Homo sapiens, UniProt P07384).
T1 construct: Calpain I was purified from human erythrocytes; from tissue; host or cells: human erythrocytes
T1 sequence (P07384 1-714): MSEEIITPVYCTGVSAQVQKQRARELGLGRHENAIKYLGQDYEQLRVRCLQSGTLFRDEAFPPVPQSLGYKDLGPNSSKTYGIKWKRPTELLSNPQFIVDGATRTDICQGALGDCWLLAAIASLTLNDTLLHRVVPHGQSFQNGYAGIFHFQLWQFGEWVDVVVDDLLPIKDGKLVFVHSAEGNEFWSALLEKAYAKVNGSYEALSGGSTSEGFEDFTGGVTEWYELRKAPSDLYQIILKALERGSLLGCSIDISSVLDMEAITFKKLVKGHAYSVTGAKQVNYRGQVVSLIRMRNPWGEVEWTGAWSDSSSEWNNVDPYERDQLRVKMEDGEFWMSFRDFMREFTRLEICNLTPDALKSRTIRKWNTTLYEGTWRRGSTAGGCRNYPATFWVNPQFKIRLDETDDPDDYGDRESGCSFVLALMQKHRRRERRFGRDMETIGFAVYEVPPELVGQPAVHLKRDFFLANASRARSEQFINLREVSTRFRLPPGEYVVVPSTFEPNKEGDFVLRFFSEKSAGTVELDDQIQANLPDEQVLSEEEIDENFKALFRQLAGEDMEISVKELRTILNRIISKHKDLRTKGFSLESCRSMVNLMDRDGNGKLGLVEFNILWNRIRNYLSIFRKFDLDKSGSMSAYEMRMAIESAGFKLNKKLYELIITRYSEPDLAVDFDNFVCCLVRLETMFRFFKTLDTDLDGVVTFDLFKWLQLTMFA
T1 sequence (P04632 1-268 partner): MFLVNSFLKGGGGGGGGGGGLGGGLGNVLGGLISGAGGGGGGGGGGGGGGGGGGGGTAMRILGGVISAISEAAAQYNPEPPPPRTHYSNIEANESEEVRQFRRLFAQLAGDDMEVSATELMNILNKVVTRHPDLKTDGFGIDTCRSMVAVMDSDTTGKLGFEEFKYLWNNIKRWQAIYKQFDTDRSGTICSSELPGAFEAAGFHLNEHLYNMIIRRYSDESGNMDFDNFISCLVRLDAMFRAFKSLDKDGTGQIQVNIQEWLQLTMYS
The assay is described as follows: Calpain I inhibition, Suc-Leu-Tyr-AMC hydrolysis (KI). The note with it: read-out: KI Cal I. In short, it runs like this: (§1)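 Human erythrocyte calpain I and rabbit calpain II were followed by fluorimetric AMC release from Suc-Leu-Tyr-AMC at pH 8.0 (25 mM Tris, 10 mM CaCl2). Cathepsin B was run at pH 5.2 with 0.5 mM DTT on a p-nitroanilide substrate, or with Z-Arg-Arg-AFC (ex 400/em 505 nm). Enzyme was added last, and KI was taken from Dixon or Lineweaver-Burk analysis.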

Assay [2] deals with T2, human leukocyte elastase (HLE) (Homo sapiens, UniProt P08246).
T2 sequence (P08246 30-267): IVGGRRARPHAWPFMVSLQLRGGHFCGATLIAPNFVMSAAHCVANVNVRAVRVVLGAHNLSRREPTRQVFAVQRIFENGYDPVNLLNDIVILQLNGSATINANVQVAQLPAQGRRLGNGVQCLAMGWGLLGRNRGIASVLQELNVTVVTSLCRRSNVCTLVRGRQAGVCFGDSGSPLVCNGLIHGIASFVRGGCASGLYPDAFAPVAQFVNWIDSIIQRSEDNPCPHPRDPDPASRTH
Nature of the assay: HLE inhibition, MeO-Suc-Ala-Ala-Pro-Val-NA hydrolysis. Particulars: for IC50: Table 4, Z-Leu--AA--CONH-R; for Ki: Table 4, in brackets under the IC50. The method, then:
(§2) Peptide α-ketoamides were assayed as reversible enzyme inhibitors. Various concentrations of inhibitors in Me2 SO were added to the assay mixture which contained buffer and substrate. The reaction was started by the addition of the enzyme and the hydrolysis rates were followed spectrophotometrically or fluorimetrically.
(§3) A 0.1M Hepes, 0.5M NaCl, pH 7.5 buffer was utilized for human leukocyte elastase (HLE), porcine pancreatic elastase (PPE), chymotrypsin and cathepsin G. A 0.1 Hepes, 0.01 M CaCl2, pH 7.5 buffer was utilized for trypsin, plasmin, and coagulation enzymes. A 50 mM Tris.HCl, 2 mM EDTA, 5 mM cysteine, pH 7.5 was used as a buffer for papain. A 88 mM KH2 PO4, 12 mM Na2 HPO4, 1.33 mM EDTA, 2.7 mM cysteine, pH 6.0 solution was used as a buffer for cathepsin B. A 20 mM Hepes, 10 mM CaCl2, 10 mM mercatoethanol, pH 7.2 buffer was utilized for calpain I and calpain II.
(§4) HLE and PPE were assayed with MeO-Suc-Ala-Ala-Pro-Val-NA and Suc-Ala-Ala-Ala-NA, respectively Nakajima et al., J. Biol. Chem. 254, 4027-4032 (1979); incorporated herein by reference!. Human leukocyte cathepsin G and chymotrypsin Aα were assayed with Suc-Val-Pro-Phe-NA Tanaka et al., Biochemistry 24, 2040-2047 (1985); incorporated herein by reference!. The hydrolysis of peptide 4-nitroanilides was measured at 410 nm ε410 =8800 M^-1 cm^-1; Erlanger et al., Arch. Biochem. Biophys. 95, pp 271-278 (1961); incorporated herein by reference!. Trypsin, thrombin, human plasma kallikrein, porcine pancreatic kallikrein, human factor XIa, and human plasmin were assayed with Z-Arg-SBzl or Z-Gly-Arg-SBu-i McRae et al., Biochemistry 20, 7196-7206 (1981); incorporated herein by reference!. All peptide thioester hydrolysis rates were measured with assay mixtures containing 4,4'-dithiodipyridine ε324 =19800 M^-1 cm^-1; Grasetti & Murray, Arch. Biochem. Biophys. 119, 41-49 (1967); incorporated herein by reference!.

In assay [3] the target is T3, Human leukocyte cathepsin G (Homo sapiens, UniProt P08311).
T3 sequence (P08311 21-255): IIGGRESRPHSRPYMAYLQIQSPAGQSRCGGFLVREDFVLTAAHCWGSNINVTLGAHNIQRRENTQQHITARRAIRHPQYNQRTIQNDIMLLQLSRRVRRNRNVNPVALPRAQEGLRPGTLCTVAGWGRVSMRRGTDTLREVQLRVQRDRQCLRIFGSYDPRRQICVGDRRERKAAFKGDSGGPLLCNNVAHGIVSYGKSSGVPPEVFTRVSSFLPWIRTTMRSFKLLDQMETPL
Nature of the assay: Cathepsin G inhibition, Suc-Val-Pro-Phe-NA hydrolysis. Particulars: for IC50: Table 4, Z-Leu--AA--CONH-R; for Ki: Table 4, in brackets under the IC50, read-out: KI Cat G. The method, then:
as §2, §3, §4

Assay [4] concerns the target calpain II from rabbit. Nature of the assay: Calpain II inhibition, Suc-Leu-Tyr-AMC hydrolysis (KI). The note with it: Table 2, Z-Leu--AA--CONH--CH2 CH(OH)-R; read-out: KI Cal II. In short, it runs like this: as §1
The target in assay [5] is T4, cathepsin B (Homo sapiens, UniProt P07858).
T4 construct: purchased Sigma
Nature of the assay: Cathepsin B inhibition (KI). Particulars: Table 2, Z-Leu--AA--CONH--CH2 CH(OH)-R; read-out: KI Cat B. In short, it runs like this: as §1

[6] abbreviates: Table 2, Z-Leu--AA--CONH--CH2 CH(OH)-R.

Read-outs that look alike come from different tables or passages of the source. A value given as a limit tells only on which side of the number the result lay.

One may read the Ki as the dissociation constant of the complex between target and ligand, obtained from inhibition or displacement. As a reminder, the IC50 is the point on the concentration scale where inhibition reaches its midpoint.

Turning to `CC[C@H](NC(=O)[C@H](CC(C)C)NC(=O)OCc1ccccc1)C(=O)C(=O)NCC(O)c1ccc(N(C)C)cc1` (stereo partly drawn) [Z-Leu-Abu-CONH--CH2 CH(OH)C6 H4 (4-N(CH3)2)], the Ki in assay [1] (setting [6]) came to 0.33 µM; in assay [2] it was 19 µM. In addition, the IC50 in assay [2] is 18 µM; in assay [3] it was over 204 µM.

Consider `CCC(NC(=O)C(CC(C)C)NC(=O)OCc1ccccc1)C(=O)C(=O)NCC(O)c1cccc(C(F)(F)F)c1` (stereo not drawn) [Z-Leu-Abu-CONH-CH2 CH(OH)-C6 H4 (3-CF3), Z-Leu-Abu-CONH--CH2 CH(OH)C6 H4 (3-CF3)], for which the Ki in assay [1] (setting [6]) came out at 0.35 µM; in assay [2] it was 9 µM. Further, the IC50 was 11 µM in assay [2] and over 204 µM in assay [3].

Take `CC(C)CC(NC(=O)OCc1ccccc1)C(=O)NC(Cc1ccccc1)C(=O)C(=O)NCCCN1CCOCC1` (stereo not drawn) [Z-Leu-Phe-CONH-(CH2)3 -4-morpholinyl, Z-Leu-Phe-CONH--(CH2)3 -4-Morpholinyl]: the Ki in assay [1] (Table 1, Z-Leu--AA--CONHR) stood at 0.22 µM. Further, the IC50 in assay [2] is over 222 µM; in assay [3], 136 µM.

In the case of `CC(C)C[C@H](NC(=O)OCc1ccccc1)C(=O)N[C@@H](Cc1ccccc1)C(=O)C(=O)NCC(O)c1ccc(N(C)C)cc1` (stereo partly drawn) [Z-Leu-Phe-CONH--CH2 CH(OH)C6 H4 (4-N(CH3)2)], in assay [1] (setting [6]), the Ki came to 0.62 µM. For the same compound, the values for the IC50 in assay [2] and in assay [3] were 28 µM and 58 µM, respectively.

Turning to `CC(C)C[C@H](NC(=O)OCc1ccccc1)C(=O)N[C@@H](Cc1ccccc1)C(=O)C(=O)NCC(O)c1cccc(Oc2cccc(C(F)(F)F)c2)c1` (stereo partly drawn) [Z-Leu-Phe-CONH--CH2 CH(OH)C6 H4 -3-OC6 H4 (3-CF3)], the Ki in assay [1] (setting [6]) was 0.18 µM. Also, the figures for the IC50 in assay [2] and in assay [3] were 70 µM and 80 µM, respectively.

On to `CC(C)C[C@H](NC(=O)OCc1ccccc1)C(=O)N[C@@H](Cc1ccccc1)C(=O)C(=O)NCC(O)c1ccc(OCc2ccccc2)c(OCc2ccccc2)c1` (stereo partly drawn) [Z-Leu-Phe-CONH-C6 H3 (3,4-(OCH2 Ph)2), Z-Leu-Phe-CONH--CH2 CH(OH)C6 H3 (3,4-(OCH2 Ph)2)], for which the IC50 came to 22 µM in assay [2] and 66 µM in assay [3].

For `CC(C)C[C@H](NC(=O)OCc1ccccc1)C(=O)N[C@@H](Cc1ccccc1)C(=O)C(=O)NCC(O)c1ccccc1` (stereo partly drawn) [Z-Leu-Phe-CONH-CH2 CH(OH)-Ph, Z-Leu-Phe-CONH--CH2 CH(OH)Ph], the inhibition constant (Ki) came out at 1.3 µM in assay [1] (setting [6]), 0.05 µM in assay [4] and 2.1 µM in assay [5]. Also, the IC50 in assay [2] came to 44 µM; in assay [3], 102 µM.

For the compound `CC(C)CC(NC(=O)OCc1ccccc1)C(=O)NC(Cc1ccccc1)C(=O)C(=O)NCc1ccccc1` (stereo not drawn) [Z-Leu-Phe-CONH-CH2 Ph], the IC50 in assay [2] was 40 µM; in assay [3] it was 63 µM.

As to `CCNC(=O)C(=O)[C@H](Cc1ccccc1)NC(=O)[C@H](CC(C)C)NC(=O)OCc1ccccc1` [Z-Leu-Phe-CONH-Et, Z-Leu-Phe-CO--NH-Et], the IC50 in assay [2] stood at 74 µM; in assay [3], 91 µM.

For `CC(C)C[C@H](NC(=O)OCc1ccccc1)C(=O)N[C@@H](Cc1ccccc1)C(=O)C(N)=O` [Z-Leu-Phe-CONH-H], the IC50 in assay [2] worked out at 100 µM; in assay [3], 80 µM.

For the compound `CC(C)CNC(=O)C(=O)C(Cc1ccccc1)NC(=O)C(CC(C)C)NC(=O)OCc1ccccc1` (stereo not drawn) [Z-Leu-Phe-CONH-i-Bu], the values for the IC50 in assay [2] and in assay [3] were 20 µM and 45 µM, respectively. Also, the Ki in assay [2] amounted to 10 µM; in assay [3], 21 µM.

For `CCCCNC(=O)C(=O)C(Cc1ccccc1)NC(=O)C(CC(C)C)NC(=O)OCc1ccccc1` (stereo not drawn) [Z-Leu-Phe-CONH-n-Bu], the IC50 in assay [2] was 16 µM; in assay [3] it was 68 µM. Besides, the Ki in assay [2] worked out at 11 µM; in assay [3] it was 4.9 µM.

As for `CCCNC(=O)C(=O)C(Cc1ccccc1)NC(=O)C(CC(C)C)NC(=O)OCc1ccccc1` (stereo not drawn) [Z-Leu-Phe-CONH-n-Pr], the IC50 in assay [2] is 44 µM; in assay [3], 65 µM.

Regarding `CCC(C)NC(=O)C(=O)C(Cc1ccccc1)NC(=O)C(CC(C)C)NC(=O)OCc1ccccc1` (stereo not drawn) [Z-Leu-Phe-CONH-sec-Bu], the IC50 was determined as 50 µM in assay [2] and 128 µM in assay [3].

For “Z-Leu-Phe-CONH--CH2 CH(OH)C6 H4 (4-OPh) [Z-Leu-Phe-CONH-CH2 CH(OH)-C6 H4 (4-OPh)]”, the IC50 in assay [2] is 32 µM; in assay [3], over 102 µM.

The record behind these values is US5514694A, “Peptidyl ketoamides” (Georgia Tech Research Corp, priority 1993, dated 1996).
